# Results from patent US20250082648A1, “COMPOSITIONS AND METHODS FOR ENHANCING KRAS INHIBITOR OR SHP2 INHIBITOR EFFICACY” (New York University, priority 2023, published 2025).
# System: H23 cells
# Test: CRISPR/Cas9 synthetic lethal screen with TNO155 alone
# Format: cell-based, human
smiles,measurement,setting,value
C[C@@H]1OCC2(CCN(c3cnc(Sc4ccnc(N)c4Cl)c(N)n3)CC2)[C@@H]1N [TNO155],neg|lfc,knockout gene AP2M1,−1.5896
same,neg|lfc,knockout gene ATP6V0C,−2.4937
same,neg|lfc,knockout gene ATP6V1F,−1.3822
same,neg|lfc,knockout gene ATP6V1H,−1.2922
same,neg|lfc,knockout gene BUB1,−1.3761
same,neg|lfc,knockout gene C7orf26,−1.2403
same,neg|lfc,knockout gene C12orf45,−0.8919
same,neg|lfc,knockout gene C18orf21,−1.7774
same,neg|lfc,knockout gene CAPZA1,−0.8323
same,neg|lfc,knockout gene CARD10,−0.8745
same,neg|lfc,knockout gene CD3EAP,−0.9138
same,neg|lfc,knockout gene CENPM,−2.7542
same,neg|lfc,knockout gene CFDP1,−1.4115
same,neg|lfc,knockout gene COQ6,−0.9015
same,neg|lfc,knockout gene COX6B1,−1.1999
same,neg|lfc,knockout gene CS,−0.9482
same,neg|lfc,knockout gene DCST2,−1.3843
same,neg|lfc,knockout gene DDX52,−1.2486
same,neg|lfc,knockout gene DENR,−1.046
same,neg|lfc,knockout gene DHPS,−1.8131
same,neg|lfc,knockout gene DPM3,−0.9381
same,neg|lfc,knockout gene EGLN1,−1.2972
same,neg|lfc,knockout gene ELP2,−0.9643
same,neg|lfc,knockout gene EXOSC2,−2.2014
same,neg|lfc,knockout gene FASTKD5,−1.4304
same,neg|lfc,knockout gene FBL,−2.1994
same,neg|lfc,knockout gene FXN,−2.3715
same,neg|lfc,knockout gene G6PD,−2.0605
same,neg|lfc,knockout gene GATA5,−0.7392
same,neg|lfc,knockout gene GMPS,−1.5348
same,neg|lfc,knockout gene GNB2L1,−1.4387
same,neg|lfc,knockout gene GTF2H3,−0.8448
same,neg|lfc,knockout gene GTF3C1,−1.8687
same,neg|lfc,knockout gene HARS2,−1.9989
same,neg|lfc,knockout gene HIRA,−1.0969
same,neg|lfc,knockout gene HSPA13,−1.2857
same,neg|lfc,knockout gene IPO9,−1.5514
same,neg|lfc,knockout gene KIAA1324,−0.9092
same,neg|lfc,knockout gene KREMEN2,−1.0026
same,neg|lfc,knockout gene LARS,−2.0903
same,neg|lfc,knockout gene LEMD2,−1.7855
same,neg|lfc,knockout gene LIAS,−1.7787
same,neg|lfc,knockout gene LRPPRC,−1.3022
same,neg|lfc,knockout gene MCAT,−1.6999
same,neg|lfc,knockout gene MMGT1,−1.1768
same,neg|lfc,knockout gene MPHOSPH10,−1.2081
same,neg|lfc,knockout gene MRPL2,−1.5188
same,neg|lfc,knockout gene MRPS11,−2.1012
same,neg|lfc,knockout gene MRPS14,−2.7074
same,neg|lfc,knockout gene MTERFD1,−0.8478
same,neg|lfc,knockout gene MTFMT,−1.4999
same,neg|lfc,knockout gene MVD,−2.2878
same,neg|lfc,knockout gene NDUFAF4,−2.8677
same,neg|lfc,knockout gene NDUFS2,−1.6602
same,neg|lfc,knockout gene NGDN,−1.6157
same,neg|lfc,knockout gene NHP2,−2.4304
same,neg|lfc,knockout gene NUP50,−1.7194
same,neg|lfc,knockout gene OXA1L,−1.0359
same,neg|lfc,knockout gene PAXIP1,−1.2046
same,neg|lfc,knockout gene PELO,−1.8232
same,neg|lfc,knockout gene PFDN2,−1.6271
same,neg|lfc,knockout gene PHB,−0.6638
same,neg|lfc,knockout gene PHF6,−0.9513
same,neg|lfc,knockout gene PIGM,−0.9761
same,neg|lfc,knockout gene PIK3C3,−1.3101
same,neg|lfc,knockout gene PKN2,−1.323
same,neg|lfc,knockout gene PLEC,−0.9261
same,neg|lfc,knockout gene POLR3C,−2.1096
same,neg|lfc,knockout gene PRMT1,−2.4486
same,neg|lfc,knockout gene PTCD3,−1.5106
same,neg|lfc,knockout gene RABGGTA,−1.5175
same,neg|lfc,knockout gene RBFA,−1.2488
same,neg|lfc,knockout gene RBM15,−0.9128
same,neg|lfc,knockout gene RMND1,−2.1857
same,neg|lfc,knockout gene RNGTT,−1.4545
same,neg|lfc,knockout gene RNMTL1,−1.8816
same,neg|lfc,knockout gene RPF2,−1.6299
same,neg|lfc,knockout gene RPS2,−1.4859
same,neg|lfc,knockout gene RRP36,−1.7306
same,neg|lfc,knockout gene RSBN1,−1.1801
same,neg|lfc,knockout gene SDHB,−1.352
same,neg|lfc,knockout gene SDHC,−1.0873
same,neg|lfc,knockout gene SLC30A9,−0.8169
same,neg|lfc,knockout gene SMNDC1,−1.605
same,neg|lfc,knockout gene SNRPA,−0.853
same,neg|lfc,knockout gene SORT1,−0.7919
same,neg|lfc,knockout gene SS18L2,−1.8054
same,neg|lfc,knockout gene SYS1,−1.4135
same,neg|lfc,knockout gene TAF2,−1.6548
same,neg|lfc,knockout gene TAMM41,−1.389
same,neg|lfc,knockout gene TEX10,−1.2531
same,neg|lfc,knockout gene TFRC,−0.7641
same,neg|lfc,knockout gene TRAPPC3,−1.2908
same,neg|lfc,knockout gene TRAPPC11,−1.3146
same,neg|lfc,knockout gene TRMT6,−1.3112
same,neg|lfc,knockout gene TSC2,−1.2936
same,neg|lfc,knockout gene VMP1,−2.2825
same,neg|lfc,knockout gene XRCC3,−1.7596
same,neg|lfc,knockout gene YARS,−2.5691
same,neg|lfc,knockout gene YKT6,−1.2993
